{
  "source": "patent US9181290B2",
  "about": "“Inhibition of biofilm formation by 1,2,3,4,6-penta-O-galloyl-D-glucopyranose” (CHANG GUNG UNIVERSITY, priority 2011, dated 2015)",
  "key": {"[1]": {"test_system": "S. aureus SA113 (ATCC 35556)", "test": "Bacterial growth (A578) and biofilm formation (crystal violet, A595) in 96-well polystyrene microtiter plates", "assay_type": "cell-based, Staphylococcus aureus", "conditions": "for pIC50: Staphylococcus aureus, read-out: IB50 (concentration that inhibited 50% biofilm formation); for Cell Growth (%): growth compared to untreated control at the concentration of IB50", "procedure": "An overnight bacterial culture was 200-fold diluted with TSBg, and a 200 μL aliquot of the diluted culture was seeded into each well of 96-well polystyrene microtiter plates and incubated at 37° C. for a designated period of time. Cell growth was determined by measuring the absorbance at 578 nm (A578) with a microtiter plate reader (SpectraMax 340, Molecular Devices). After washing with PBS twice to remove suspended cells, the wells were stained with 0.1% (w/v) crystal violet in 10% ethanol and then treated with 30% acetic acid in dH2O, followed by detecting the absorbance at 595 nm (A595) with the microtiter plate reader to quantify the amount of biofilm formed on polystyrene surface.\nAn overnight culture of S. aureus SA113 was 200-fold diluted with TSBg, and a 200 μL aliquot of the diluted culture was seeded into each well of 96-well microtiter plates. Compounds purified from medicinal plants were added into each well at a designated concentration up to […]. At 6 hours after seeding, the amounts of biofilms formed in the wells were determined by crystal violet staining as described above. Cells treated with either distilled water or DMSO were used as a control. The amount of biofilm formation by the control group was set as 100%. Each experiment was repeated at least three times, with n=6 for each sample tested. The concentrations of compounds that inhibited 50% biofilm formation (IB50) were calculated based on logistic regression analysis results. Besides, the biofilm formation inhibition rate of a PGG-treated group was calculated using the following equation (1). Biofilm formation inhibition rate(%)=[(A−B)/A]×100 (1) wherein:\nIn the wells of 96-well microtiter plates, S. aureus SA113 cells were cultured in TSBg broth in the presence of either β-PGG or α-PGG at different amounts (0, 1 and 10 μM). After incubation at 37° C. for 6 hrs, the cell density was determined by measuring the absorbance at 578 nm (A578), and the amounts of biofilm were quantified by crystal violet staining, with the amount of biofilm formed by untreated bacterial cells being set as 100%. Each experiment was repeated three times, with n=6 for each sample tested.\nTo determine the effect(s) of (β-PGG upon bacterial growth and biofilm formation, β-PGG in various amounts (final concentration: 0, 1.56, 3.13, 6.25, 12.5, 25 and 50 μM) was added into the culture of S. aureus SA113 during seeding into the wells of polystyrene microtiter plates, followed by incubation at 37° C. for 6 hrs or 24 hrs. Cell growth was determined by measuring the absorbance at 578 nm, and the amount of biofilm formed on polystyrene surface was determined at 595 nm after crystal violet staining. In addition to polystyrene surface, the effect of β-PGG in inhibiting biofilm formation on polycarbonate surface was also examined according to the procedures as described in the preceding section entitled “Materials and methods.”"}, "S. aureus": {"test_system": "S. aureus", "test": "Biofilm formation after treatment with other strong antioxidants (data not shown)", "assay_type": "cell-based, Staphylococcus aureus"}, "[2]": {"conditions": "ATCC35556, 6 hours, logistic regression"}},
  "note": "pIC50: −log10 of the molar value. Where two headings read alike, the source gives them in different places.",
  "data": [
    {"compound": "NC(=O)CI", "note": "[IDA, Iodoacetamide, reference compound]", "values": [
      {"measurement": "pIC50", "setting": "[1]; ATCC35556, 6 h", "value": 3.92},
      {"measurement": "Cell Growth (%)", "setting": "[1]", "value": 50, "unit": "%"}
    ]},
    {"compound": "CC(=O)N[C@@H](CS)C(=O)O", "note": "[NAC, N-acetylcysteine, reference compound]", "values": [
      {"measurement": "pIC50", "setting": "[1]; [2]", "value": 2.20},
      {"measurement": "Cell Growth (%)", "setting": "[1]", "value": 88, "unit": "%"}
    ]},
    {"compound": "O=C1C=CC(=O)N1c1ccccc1", "note": "[NPM, N-phenyl maleimide, reference compound]", "values": [
      {"measurement": "pIC50", "setting": "[1]; [2]", "value": 4.38},
      {"measurement": "Cell Growth (%)", "setting": "[1]", "value": 66, "unit": "%"}
    ]},
    {"compound": "O=C1O[C@H]([C@@H](O)CO)C(O)=C1O", "note": "[ascorbic acid]", "values": [
      {"measurement": "influence on biofilm formation", "setting": "S. aureus", "value": "does not influence biofilm formation"}
    ]},
    {"compound": "O=C(OC[C@H]1O[C@H](OC(=O)c2cc(O)c(O)c(O)c2)[C@H](OC(=O)c2cc(O)c(O)c(O)c2)[C@@H](OC(=O)c2cc(O)c(O)c(O)c2)[C@@H]1OC(=O)c1cc(O)c(O)c(O)c1)c1cc(O)c(O)c(O)c1", "note": "[α-PGG, 1,2,3,4,6-Penta-O-galloyl-α-D-glucopyranose]", "values": [
      {"measurement": "viability of S. aureus SA113 cells (A578)", "setting": "[1]; 1 μM and 10 μM, 6 hour incubation (anomer comparison)", "value": "did not affect the viability"},
      {"measurement": "reduction of biofilm formation", "setting": "[1]; 1 μM, 6 hour incubation (anomer comparison)", "value": 13, "unit": "%"},
      {"measurement": "reduction of biofilm formation", "setting": "[1]; 10 μM, 6 hour incubation (anomer comparison)", "value": 65, "unit": "%"}
    ]},
    {"compound": "(−)-epigallocatechin gallate", "values": [
      {"measurement": "influence on biofilm formation", "setting": "S. aureus", "value": "does not influence biofilm formation"}
    ]}
  ]
}
